Tests used:
[1] = biological target: α1-AG (α1-acid glycoprotein); test: Binding constant of basic drug to α1-AG by displacement of compound 1 (fluorescence probe method, Klotz formula); settings: 0.1M phosphoric acid buffer pH 7.4; 3×10^-6 M α1-AG; compound 1 as probe
Procedure: (§1) Two different kinds of solutions, one containing α1 -AG and a compound of this invention listed above, the other containing α1 -AG, the compound of this invention, and a drug, are prepared to measure fluorescence intensity at the excitation. fluorescence wavelength, as shown in Table 2. According to the working curve made beforehand, the binding rate of the compound to α1 -AG in each solution is determined and the binding constant of a drug to α1-AG is calculated from the difference between the binding rates in the presence and the absence of a drug.
(§2) In the fluorescence cell made of quartz with a plug was placed the buffer solution of 0.1M phosphoric acid (2 ml) which pH is 7.4 and containig 1×10^-4 M α1 -AG, to which 5×10^-4 M aqueous solution of the compound 1 was added by 2 μl each with a microcylinder, which was prepared by dissolving about 3 mg of the compound 1 in 1N hydrochloric acid (1 ml), followed by diluting with water to make the total volume 200 times, and the resulting solution was mixed fully to determine fluorescence intensity at 508 nm (excitation wavelength: 418 nm).
(§3) For the buffer solution of 0.1M phosphoric acid (2 ml) which pH is 7.4 and containing 3×10^-6 M α1 -AG, the same procedure as in Example 1 was performed.
As for the other basic drugs shown in Table 3, binding constant were obtained according to the same manner as in Example 11.

α1-AG [2] = settings: cited from earlier work
Human Serum Albumine = test: Fluorescence (excitation and fluorescence wavelength) with human serum albumin; type: physicochemical
Procedure: A solution containing a compound is added to a solution containing albumin and the mixed solution is subjected to determination of fluorescence intensity at excitation. fluorescence wavelength as shown in Table 2. According to the working curve on the standard albumin solution made beforehand, the concentration of albumin in the sample solution is determined.

[3] = system: α1-AG (α1-acid glycoprotein); test: Binding of compound to α1-AG by fluorescence titration, Scatchard analysis; settings: for binding of the compound 1 to α1-AG: pH 7.4
Procedure: as §2, §3
The binding rate (X) of the compound 1 to α1 -AG was introduced from the following formula (1) [formula]
In this scheme, Fb is fluorescence intensity at some concentration of the compound 1 which was obtained in Experiment 1, Fp is fluorescence intensity at the same concentration of the compound 1 which was obtained in Example 2, and Fo is blank value.
The value introduced from the binding rate at each concentration of the compound 1 was plotted accoding to the formula (2) of Scatchard, whereby the binding parameter of the compound 1 to α1 -AG was obtained.
In this scheme, r is the amount of binding of the compound 1 per α1 -AG (1 mole), n is the number of binding site, Ka is the binding constant of the compound 1, Df is the concentration of the compound 1 which is free form.

α1-AG [4] = test: Fluorescence (excitation and fluorescence wavelength) with α1-AG; type: physicochemical
Procedure: as §1
Sulfosalicylic acid is added to the sample solution containing α1 -AG to remove coexisting proteins, to which the solution containing a compound is added. The mixed solution is subjected to determination of fluorescence intensity at excitation. fluorescence wavelength as shown in Table 2. According to the working curve on the standard solution of α1 -AG, the concentration of α1-AG in the sample is determined.

Compound | log Kb (binding constant) [1] | Excitation Wavelength (Human Serum Albumine) [nm] | Fluorescence Wavelength (Human Serum Albumine) [nm] | Excitation Wavelength (α1-AG [4]) [nm] | Fluorescence Wavelength (α1-AG [4]) [nm] | further results
CN(C)CCC=C1c2ccccc2CCc2ccccc21 [Amitriptyline] | 5.58 |  |  |  |  | 
CN(C)c1ccc(C(=N)c2ccc(N(C)C)cc2)cc1 [Auramin O] |  |  |  |  |  | binding strength to α1-AG (α1-AG [2]; Y. Sugiyama et al, Biochem. Pharmcol. 34(6), 821-829 (1985)): very weak
CCN(CC)c1ccc(-n2nc3cc(N)cc(Cl)c3n2)cc1 [Compound 1, 7-chloro-2-(p-diethylaminophenyl)-2H-benzotriazolyl-5-amine] |  | 415 | 505 | 418 | 508 | n (number of binding site) ([3]; 0.1M phosphoric acid buffer pH 7.4, 3×10^-6 M α1-AG, Scatchard): 0.40; binding of the compound 1 to α1-AG ([3]; 1×10^-4 M α1-AG, ex 418 nm, em 508 nm): all of the compound 1 bound to α1 -AG; binding of the compound 1 to α1-AG ([3]; 3×10^-6 M α1-AG): under an equilibrium condition
CNc1ccc(-n2nc3cc(N)cc(Cl)c3n2)cc1 [Compound 2, 7-chloro-2-(p-methylaminophenyl)-2H-benzotriazolyl-5-amine] |  | 385 | 480 | 396 | 482 | 
Nc1cc(Cl)c2nn(-c3ccc(Nc4ccccc4)cc3)nc2c1 [Compound 3, 7-chloro-2-(p-anilinophenyl)-2H-benzotriazolyl-5-amine] |  | 400 | 485 | 400 | 505 | 
Nc1cc(Cl)c2nn(-c3ccc(N4CCOCC4)cc3)nc2c1 [Compound 4, 7-chloro-2-(p-morpholinophenyl)-2H-benzotriazolyl-5-amine] |  | 383 | 465 | 396 | 502 | 
CCOC(=O)c1cc(N)cc2nn(-c3ccc(N(CC)CC)cc3)nc12 [Compound 5, Ethyl 6-amino-2-(p-diethylaminophenyl)-2H-benzotriazole-4-carboxylate] |  | 420 | 520 | 452 | 567 | 
CNCCCN1c2ccccc2CCc2ccccc21 [Desipramine] | 4.86 |  |  |  |  | 
COc1ccc([C@@H]2Sc3ccccc3N(CCN(C)C)C(=O)[C@@H]2OC(C)=O)cc1 [Diltiazem] | 5.40 |  |  |  |  | 
CN(C)CCCN1c2ccccc2CCc2ccccc21 [Imipramine] | 5.61 |  |  |  |  | 
COc1ccc2c(c1)N(C[C@H](C)CN(C)C)c1ccccc1S2 [Levomepromazine] | 6.01 |  |  |  |  | 
COC(=O)C1=C(C)NC(C)=C(C(=O)OCCN(C)Cc2ccccc2)C1c1cccc([N+](=O)[O-])c1 (stereo not shown) [Nicardipine] | 6.78 |  |  |  |  | 
CCC(c1ccccc1)c1c(O)c2ccccc2oc1=O (stereo not shown) [Phenprocoumon] |  |  |  |  |  | wavelength suitable for determination (α1-AG [2]; M. Otagiri et al., J. of Pharmaceutical Sciences 76(8), 646-649 (1987)): short
CC(C)NCC(O)COc1cccc2[nH]ccc12 (stereo not shown) [Pindolol] | 5.33 |  |  |  |  | 
CC(CN1c2ccccc2Sc2ccccc21)N(C)C (stereo not shown) [Promethazine] | 4.94 |  |  |  |  | 
CC(CN(C)C)CN1c2ccccc2CCc2ccccc21 (stereo not shown) [Trimipramine] | 5.54 |  |  |  |  | 
